In patent publication US11633481B2, “Surfactants for use in healthcare products” (priority 2019, dated 2023):

Experiments:
Format in all cases: physicochemical
[1] = Critical micelle concentration and minimum surface tension by Wilhelmy plate method
Text: These properties may be measured and described by various methods. One method by which surfactants may be described is by the molecule's critical micelle concentration (CMC). CMC may be defined as the concentration of a surfactant at which micelles form, and above which all additional surfactant is incorporated into micelles.
As surfactant concentration increases, surface tension decreases. Once the surface is completely overlaid with surfactant molecules, micelles begin to form. This point represents the CMC, as well as the minimum surface tension. Further addition of surfactant will not further affect the surface tension. CMC may therefore be measured by observing the change in surface tension as a function of surfactant concentration. One such method for measuring this value is the Wilhemy plate method. A Wilhelmy plate is usually a thin iridium-platinum plate attached to a balance by a wire and placed perpendicularly to the air-liquid interface. The balance is used to measure the force exerted on the plate by wetting. This value is then used to calculate the surface tension (γ) according to Equation 1: γ=F/I cos θ Equation 1: wherein I is equal to the wetted perimeter (2w+2d, in which w and d are the […], respectively) and cos θ, the contact angle between the liquid and the plate, is assumed to be 0 in the absence of an extant literature value.
(§1) Nuclear magnetic resonance (NMR) spectroscopy was performed on a Bruker 500 MHz spectrometer. The critical micelle concentration (CMC) was determined by the Wilhelmy plate method at 23° C. with a tensiometer (DCAT 11, DataPhysics Instruments GmbH) equipped with a Pt—Ir plate. Dynamic surface tension was determined with a bubble pressure tensiometer (Krüss BP100, Krüss GmbH), at 23° C. Contact angle was determined with the optical contact angle goniometer (OCA 15 Pro, DataPhysics GmbH) equipped with a digital camera.

[2] = Dynamic surface tension with bubble pressure tensiometer; details: 23° C.
Text: Another parameter used to assess the performance of surfactants is dynamic surface tension. The dynamic surface tension is the value of the surface tension for a particular surface or interface age. In the case of liquids with added surfactants, this can differ from the equilibrium value. Immediately after a surface is produced, the surface tension is equal to that of the pure liquid. As described above, surfactants reduce surface tension; therefore, the surface tension drops until an equilibrium value is reached. The time required for equilibrium to be reached depends on the diffusion rate and the adsorption rate of the surfactant.
One method by which dynamic surface tension is measured relies upon a bubble pressure tensiometer. This device measures the maximum internal pressure of a gas bubble that is formed in a liquid by means of a capillary. The measured value corresponds to the surface tension at a certain surface age, the time from the start of the bubble formation to the occurrence of the pressure maximum. The dependence of surface tension on surface age can be measured by varying the speed at which bubbles are produced.
as §1

[3] = Contact angle (wetting) with optical contact angle goniometer; details: 10× CMC in water
Text: Surface-active compounds may also be assessed by their wetting ability on solid substrates as measured by the contact angle. When a liquid droplet comes in contact with a solid surface in a third medium, such as air, a three-phase line forms among the liquid, the gas and the solid. The angle between the surface tension unit vector, acting at the three-phase line and tangent at the liquid droplet, and the surface is described as the contact angle. The contact angle (also known as wetting angle) is a measure of the wettability of a solid by a liquid. In the case of complete wetting, the liquid is completely spread over the solid and the contact angle is 0°. Wetting properties are typically measured for a given compound at the concentration of 1-100×CMC, however, it is not a property that is concentration-dependent therefore measurements of wetting properties can be measured at concentrations that are higher or lower.
In one method, an optical contact angle goniometer may be used to measure the contact angle. This device uses a digital camera and software to extract the contact angle by analyze the contour shape of a sessile droplet of liquid on a surface.
as §1

Solubility in water = details: pure water, without hydrotropes or other surfactants
[4] = chloride counterion, pH=7, 23° C.
[5] = substrate Polyethylene terephthalate

Row | Compound | critical micelle concentration (CMC) [1, 4] | plateau value of minimum surface tension [1, 4] | critical micelle concentration (CMC) ([1]; in water, 23° C.) | plateau value of minimum surface tension ([1]; in water, 23° C.) | time to fully saturate the interface (dynamic surface tension) ([2]; freshly created air-water interface) | contact angle (CA) ([3]; substrate Nylon) [°] | contact angle (CA) [3, 5] [°] | contact angle (CA) ([3]; substrate Polyethylene) [°] | contact angle (CA) ([3]; substrate Polypropylene) [°] | contact angle (CA) ([3]; substrate Teflon) [°] | solubility in water (Solubility in water) | time to fully saturate a freshly created air-water interface (dynamic surface tension) [2] | contact angle (CA) ([3]; substrate Polyethylene-HD) [°]
1 | CN(C)CCCCCC(=O)NCCC[Si](O[Si](C)(C)C)(O[Si](C)(C)C)O[Si](C)(C)C [Surfactant 2, 6-((3-(1,1,1,5,5,5-hexamethyl-3-((trimethylsilyl)oxy)trisiloxan-3-yl)propyl)amino)-N,N-dimethyl-6-oxohexan-1-aminium chloride] | about 2 mmol | about 23 mN/m | – | – | – | – | – | – | – | – | – | – | –
2 | C[N+](C)(C)CCCCCC(=O)NCCC[Si](O[Si](C)(C)C)(O[Si](C)(C)C)O[Si](C)(C)C [Surfactant 3, 6-((3-(1,1,1,5,5,5-hexamethyl-3-((trimethylsilyl)oxy)trisiloxan-3-yl)propyl)amino)-N,N,N-trimethyl-6-oxohexan-1-aminium iodide] | – | – | about 1.6 mmol | around 20 mN/m | less than 500 ms | 0 | 0 | 0 | 0 | 10.5 | – | – | –
3 | CN(C)CCCCCC(=O)NCCC[Si](O[Si](C)(C)C)(O[Si](C)(C)C)O[Si](C)(C)C [Surfactant 1, 6-(dimethylamino)-N-(3-(1,1,1,5,5,5-hexamethyl-3-((trimethylsilyl)oxy)trisiloxan-3-yl)propyl)hexanamide] | – | – | – | – | – | – | – | – | – | – | slightly soluble | – | –
4 | C[N+](C)(CCCCCC(=O)NCCC[Si](O[Si](C)(C)C)(O[Si](C)(C)C)O[Si](C)(C)C)CCCCS(=O)(=O)[O-] [Surfactant 5, 4-((6-((3-(1,1,1,5,5,5-hexamethyl-3-((trimethylsilyl)oxy)trisiloxan-3-yl)propyl)amino)-6-oxohexyl)dimethylammonio)butane-1-sulfonate] | – | – | about 0.39 mmol | about 21 mN/m | – | 0 | 0 | 0 | 0 | 10.2 | – | one second or less | 0
5 | C[N+](C)([O-])CCCCCC(=O)NCCC[Si](O[Si](C)(C)C)(O[Si](C)(C)C)O[Si](C)(C)C [Surfactant 4, 6-((3-(1,1,1,5,5,5-hexamethyl-3-((trimethylsilyl)oxy)trisiloxan-3-yl)propyl)amino)-N,N-dimethyl-6-oxohexan-1-amine oxide] | – | – | about 0.49 mmol | about 20 mN/m | – | 0 | 0 | 0 | 0 | 10.6 | – | one second or less | –
